Legend:
[1] = test system: guinea pig model of allergic conjunctivitis; assay: Guinea pig model of allergic conjunctivitis (ovalbumin); type: in vivo, Hartley Guinea pigs
Experimental: A guinea pig model of allergic conjunctivitis is used to test the effect of topical administration of a DP2 receptor antagonist to the eye on the development of allergic conjunctivitis. Male Hartley Guinea pigs ages 4-8 weeks (300-500 grams) at the beginning of the experiment were sensitized by intraperitoneal injection of ovalbumin [0.5 ml of a 100 μg/ml solution in Imject Alum. An additional 0.5 ml of the ovalbumin (OVA) solution is injected subcutaneous in the proximity of the lymph nodes (Muise et al., 2002). Twenty one days after sensitization, guinea pigs received an ocular challenge. Briefly, animals were secured within a towel and placed in a lateral recumbent position. Ten microliters of saline or OVA (2.5% in Saline) was topically applied to each eye, followed by 2-3 manually forced blinks. This procedure is repeated again on day 23. Clinical scoring of redness (using a scale of 0-3), edema (using a scale of 0-3) and discharge (using a scale of 0-4) were evaluated 90 minutes after challenge on day 23. The itch/scratch response was observed and recorded (using a scale of 0-3) for the first 30 minutes after challenge on day 23. The DP2 receptor antagonist (compound 2; {2′-[(N-cyclopropanecarbonyl-N-ethyl-amino)-methyl]-6-methoxy-4′-trifluoromethyl-biphenyl-3-yl}-acetic acid) was administered on days 21-23 by topical application using the procedure described above in a concentration of 300 ng/eye in PBS vehicle. Oral administration was also evaluated by gavage of compound 2 (10 mg/kg) prepared in 0.5% Methylcellulose or water. The means±standard error of the mean were plotted and analyzed by one-way ANOVA using Graphpad Prizm.

[2] = test system: mouse model of ragweed-induced allergic conjunctivitis; assay: Mouse ragweed allergic conjunctivitis; type: in vivo; settings: topical 0.3% in PBS, three times daily, days 9-15, FIG. 5
Experimental: A mouse model of ragweed-induced allergic conjunctivitis was used to test the efficacy of topical administration of a DP2 receptor antagonist to the eye on the development of allergic conjunctivitis. Compound 2 was evaluated in a mouse model of ocular allergy. In this model, a systemic sensitization with an allergen (Short Ragweed, SRW) was followed by topical challenge with the same allergen. For sensitization a suspension of 50 μg of short ragweed allergen (SRW, Greer, Lenoir, NC, USA) 25 μl of Aluminum Hydroxide (13 mg/ml, Sigma Aldrich) was injected into both hind rear footpads (Day 0). On days 9 through 15, topical treatment with compound 2 (0.3% in PBS), positive control (Prednisolone Acetate 1% in hypromellose), or vehicle control (PBS) was administered three times daily. Mice were dosed topically to the central cornea using a calibrated micropipette, with a 5 μL drop of treatment in each eye. On days 13 through 15 mice were challenged with topical doses of 1000 μg SRW suspension in 5 μl PBS in each eye. SRW was prepared fresh daily, and used within 3 hours of mixing, and mixed well before administration to ensure homogeneity. Thirty minutes after the final challenge (Day 15) clinical signs (discharge, lid swelling hyperemia, chemosis, and squinting) were evaluated using the aid of a dissecting microscope. A cumulative score was also recorded including all parameters measured with the exception of squinting.

[3] = test system: respiratory syncytial virus (RSV) eye infection; type: in vivo; settings: topical 60 ng/eye once daily, 14 days
Experimental: A mouse model of respiratory syncytial virus (RSV) eye infection is used to test the effects of ocular application of DP2 receptor antagonist compound on RSV-induced ocular immunopathology (Bitko V, et al., J. Virol. 2007; 81(2):783-90; Bitko V, et al., Nat. Med. 2005; 11(1):50-5). Each mouse eye is topically treated with 60 ng DP2 receptor antagonist compound or vehicle (sterile saline) in a volume of 2 μl. The DP2 receptor antagonist compound is instilled 40 min after virus inoculum and then once daily over the entire duration of the protocol (14 days).
Instillation of virus and inhibitor in the eye. Female BALB/c mice, 6 to 8 weeks old, are purchased from Charles River Laboratories. […]
Ocular pathology. Ocular disease is evaluated with a slit lamp biomicroscope (Bitko V, et al., J. Virol. 2007; 81(2):783-90)15; Girgis et al., Invest. […] Pathology is scored on a scale of 0 to 5 as follows: 0=clear eye; 1=slight redness in the corners; 2=moderate redness and injection; 3=conjunctival and corneal injection with ciliary flush; 4=extensive injection, generally associated with some mucus; 5=most extensive injection, associated with mucus. Eyes are examined in a coded fashion with the reader unaware of the treatment given. The presence of gummy residue or mucin in the eyes is recorded. […]

[4] = topical 300 ng/eye in PBS, days 21-23, scored 90 minutes after challenge on day 23, FIG. 3
[5] = scored 30 min after final challenge (Day 15)

In the case of `CCN(Cc1cc(C(F)(F)F)ccc1-c1cc(CC(=O)O)ccc1OC)C(=O)C1CC1` [compound 2, {2′-[(N-cyclopropanecarbonyl-N-ethyl-amino)-methyl]-6-methoxy-4′-trifluoromethyl-biphenyl-3-yl}-acetic acid], the “any endpoint (redness, edema, discharge, itch/scratch, clinical score)” value ([1]; oral gavage 10 mg/kg) is reported as “failed to impact any endpoint”, the cummulative clinical score ([1]; topical 300 ng/eye in PBS, days 21-23, after ocular antigen challenge, FIG. 3) is reported as “significantly reduced” and the itch/scratch response ([1]; topical 300 ng/eye in PBS, days 21-23, first 30 minutes after challenge on day 23, FIG. 3) is reported as “trend toward reduction”. For the same molecule, the Ocular edema [1, 4] was “trend toward reduction”, the discharge [1, 4] was “significantly reduced” and the redness [1, 4] was “significantly reduced”. For the same molecule, the cumulative clinical score ([2]; all parameters except squinting) was “significantly reduced”, the chemosis [2, 5] was “significantly reduced” and the discharge [2, 5] was “significantly reduced”. For the same molecule, the lid swelling [2, 5] was “significantly reduced”, the RSV eye pathology ([3]; FIG. 4 (A)) was “reduced” and the “eye IL4 induction” value ([3]; FIG. 4 (B)) was “reduced”.

Source: patent publication US8785393B2, “Ophthalmic pharmaceutical compositions of DP2 receptor antagonists” (Panmira Pharmaceuticals, LLC, priority 2009, dated 2014)
